# Tests used:
# [1] = target: T1, 4-hydroxyphenylpyruvate dioxygenase (Sus scrofa, UniProt Q02110); test: Concentration required to achieve 50% inhibition against 4-hydroxyphenylpyruvate dioxygenase from pig liver
# [2] = target: T1, 4-hydroxyphenylpyruvate dioxygenase; test: Concentration required to achieve 50% inhibition against 4-hydroxyphenylpyruvate dioxygenase from pig liver; (observed value)
# [3] = target: T1, 4-hydroxyphenylpyruvate dioxygenase; test: Concentration required to achieve 50% inhibition against 4-Hydroxyphenylpyruvate dioxygenase (HPPD) from pig liver
# [4] = target: T1, 4-hydroxyphenylpyruvate dioxygenase; test: Concentration required to achieve 50% inhibition against 4-Hydroxyphenylpyruvate dioxygenase (HPPD) from pig liver; (observed value)
# T1 sequence (Q02110 whole entry): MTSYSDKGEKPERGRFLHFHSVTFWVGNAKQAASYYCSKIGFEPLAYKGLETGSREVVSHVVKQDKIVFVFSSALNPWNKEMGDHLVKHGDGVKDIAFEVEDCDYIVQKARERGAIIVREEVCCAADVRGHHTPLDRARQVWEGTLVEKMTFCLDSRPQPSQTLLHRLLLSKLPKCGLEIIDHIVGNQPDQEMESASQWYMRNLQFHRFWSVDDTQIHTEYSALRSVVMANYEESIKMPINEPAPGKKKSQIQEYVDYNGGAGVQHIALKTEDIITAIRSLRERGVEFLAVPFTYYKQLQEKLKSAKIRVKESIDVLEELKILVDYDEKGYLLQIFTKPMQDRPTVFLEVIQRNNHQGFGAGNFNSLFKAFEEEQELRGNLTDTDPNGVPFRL
Structure (SMILES),IC50 [1] [nM],IC50 [2] [nM],IC50 [3] [nM],IC50 [4] [nM]
O=C1CCCC(O)=C1C(=O)C1CC1,6000,6030,,
CC(C)C(=O)C1=C(O)CCCC1=O,93300,93300,,
O=C1CCCC(=O)C1=C(O)c1ccccc1I,,,760,759
O=C(Oc1cc(=O)oc2ccccc12)C1CC1,,,110,110
O=C(Oc1cccc(O)c1)C1CC1,,,250,251
O=C1CCCC(=O)C1=C(O)c1ccccc1Br,,,560,562
CCC(=O)C1=C(O)CCCC1=O,17800,17800,,
O=C1CCCC(OC(=O)C2CC2)=C1Cl,,,20,20
O=C1CCCC(=O)C1=C(O)c1ccccc1Cl,,,500,501
O=C1CCCC(OC(=O)C2CC2)=C1Br,,,30,30.2
O=C1C=C(OC(=O)C2CC2)CC1,,,70,70.8
O=C1CCCC(=O)C1=C(O)c1ccccc1,,,11200,11200
CC1(C)CC(=O)C=C(OC(=O)C2CC2)C1,,,330,331
O=C1CCCC(=O)C1=C(O)c1ccccc1C(F)(F)F,,,250,251
COc1ccccc1C(O)=C1C(=O)CCCC1=O,,,11700,11700
CC(=O)C1=C(O)CCCC1=O,11200,11200,,
Cc1ccccc1C(O)=C1C(=O)CCCC1=O,,,3750,3720
CS(=O)(=O)c1ccc(C(O)=C2C(=O)CCCC2=O)c(Cl)c1,,,50,
CCOC(=O)C1CC(=O)C(C(=O)C2CC2)=C(OC(=O)C2CC2)C1 (stereo not drawn),,,40,39.8
CCOC(=O)C1CC(=O)C=C(OC(=O)C2CC2)C1 (stereo not drawn),,,90,89.1
O=C1CCCC(O)=C1C(=O)C1CCCCC1,365000,363000,,
COC1=CC(=O)C(OC(=O)C2CC2)=CC1=O,,,30000,30200
